Values of other authors, collected in patent publication US12270126B2, “Wound dressing” (University of Central Oklahoma, priority 2019, dated 2025).

Assays:
[1] = tested on: Methicillin-resistant S. aureus (MRSA)
[2] = tested on: Bacillus subtilis (B. subtilis)

Measured: inhibitory effect on microorganism

Cc1ccc(C(C)C)c(O)c1 [thymol]
inhibitory effect: [1] | E. coli | [2] | Saccharomyces cerevisiae

Cc1ccc(C(C)C)cc1O [carvacrol]
inhibitory effect: [1] | E. coli | [2] | Saccharomyces cerevisiae
